This passage reports EC50 results from US20240101531A1, “PYRIDINAMINE DERIVATIVES AND THEIR USE AS POTASSIUM CHANNEL MODULATORS” (Xenon Pharmaceuticals Inc., priority 2022, published 2024).

The target of the experiment is human KV7.2/KV7.3 (Homo sapiens (Human), UniProt O43525+O43526). In words: Potassium flux assay (IPG-2 AM dye). It is filed as cell-based. The note with it: TREX HEK 293 or HEK 293 cells expressing human KV7.2/KV7.3; arithmetic mean values. In short, it runs like this: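 HEK 293 or TREX HEK 293 cells stably expressing human KV7.2/KV7.3 (tetracycline-induced where needed), loaded with IPG-2 AM, then compound for 20 min at room temperature. Flux triggered by K challenge buffer (10 mM KCl, pH 7.4), read at 530/558 nm; EC50 from 16-point 2-fold series from 30 μM, normalised to DMSO and reference modulator.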

Each structure is given as a SMILES string. Where a name gives a salt, the structure may show the parent alone.

The EC50 is the concentration at which the effect is half-maximal. Consider `Cn1cc(COc2ccc3c(Nc4ccc(Cl)nc4)nccc3c2)cn1` [Example 196, N-(6-chloropyridin-3-yl)-6-((1-methyl-1H-pyrazol-4-yl)methoxy)isoquinolin-1-amine], for which the EC50 was below 1000 nM.

In the case of `F[C@H]1C[C@H](Oc2ccc3c(Nc4ccc(Cl)nc4)nccc3c2)C1` [Example 408, N-(6-chloropyridin-3-yl)-6-((1r,3r)-3-fluorocyclobutoxy)isoquinolin-1-amine], the EC50 lay within 1000 to 10000 nM.

For `COCCOc1ccc2c(Nc3cnc(C)nc3)nccc2c1` [Example 37, 6-(2-methoxyethoxy)-N-(2-methylpyrimidin-5-yl)isoquinolin-1-amine], the EC50 fell in the range of 10000 to 30000 nM.

On to `CC(=O)N[C@@H]1CCC[C@H](Oc2ccc3c(Nc4cnc(Cl)nc4)nccc3c2)C1` [Example 376, N-((1R,3S)-3-((1-((2-chloropyrimidin-5-yl)amino)isoquinolin-6-yl)oxy)cyclohexyl)acetamide], for which the EC50 is below 1000 nM.

Turning to `Cc1ncc(Nc2nccc3cc(OCC4COC4)ccc23)cn1` [Example 221, N-(2-methylpyrimidin-5-yl)-6-(oxetan-3-ylmethoxy)isoquinolin-1-amine], the EC50 lay within 1000 to 10000 nM.

In the case of `CC1(COc2ccc3c(Nc4cnc(Cl)c(O)c4)nccc3c2)COC1` [Example 42, 2-chloro-5-((6-((3-methyloxetan-3-yl)methoxy)isoquinolin-1-yl)amino)pyridin-3-ol], the 50% effective concentration (EC50) was below 1000 nM.

In the case of `CCCOc1ccc2c(Nc3ccc(Cl)nc3)nccc2c1` [Example 3, N-(6-chloropyridin-3-yl)-6-propoxyisoquinolin-1-amine], the EC50 was 1000 to 10000 nM.

Regarding `CC1(COc2ccc3c(Nc4cnc(Cl)c(N)c4)nccc3c2)COC1` [Example 163, 2-chloro-N^5-(6-((3-methyloxetan-3-yl)methoxy)isoquinolin-1-yl)pyridine-3,5-diamine], the EC50 is below 1000 nM.

Consider `FC(F)COc1ccc2c(Nc3ccc(Cl)nc3)nccc2c1` [Example 417, N-(6-chloropyridin-3-yl)-6-(2,2-difluoroethoxy)isoquinolin-1-amine], for which the EC50 lay within 1000 to 10000 nM.

Regarding `N#CC1(COc2ccc3c(Nc4ccc(Cl)nc4)nccc3c2)CCOC1` (racemic) [Example 124, 3-(((1-((6-chloropyridin-3-yl)amino)isoquinolin-6-yl)oxy)methyl)tetrahydrofuran-3-carbonitrile], the EC50 was below 1000 nM.

On to `FC1(COc2ccc3c(Nc4ccc(Cl)nc4)nccc3c2)CCOC1` (stereo not shown) [Example 363, N-(6-chloropyridin-3-yl)-6-((3-fluorotetrahydrofuran-3-yl)methoxy)isoquinolin-1-amine], for which the EC50 is below 1000 nM.

As for `OCC(F)(F)COc1ccc2c(Nc3ccc(Cl)nc3)nccc2c1` [Example 155, 3-((1-((6-chloropyridin-3-yl)amino)isoquinolin-6-yl)oxy)-2,2-difluoropropan-1-ol], the EC50 fell in the range of 1000 to 10000 nM.

`Cc1cc2ccccc2c(Nc2ccc(Cl)nc2)n1` [Example 398, N-(6-chloropyridin-3-yl)-3-methylisoquinolin-1-amine]: the concentration giving a half-maximal response (EC50) was at least 30000 nM.

Take `N#CC1(COc2ccc3c(Nc4cnc(Cl)nc4)nccc3c2)CCC1` [Example 369, 1-(((1-((2-chloropyrimidin-5-yl)amino)isoquinolin-6-yl)oxy)methyl)cyclobutane-1-carbonitrile]: the EC50 is below 1000 nM.

For the molecule `FC1(COc2ccc3c(Nc4ccc(Cl)nc4)nccc3c2)CC1` [Example 181, N-(6-chloropyridin-3-yl)-6-((1-fluorocyclopropyl)methoxy)isoquinolin-1-amine], the EC50 is below 1000 nM.

For the molecule `Clc1ncc(Nc2nccc3cccnc23)cn1` [Example 32, N-(2-chloropyrimidin-5-yl)-1,7-naphthyridin-8-amine], the EC50 is 1000 to 10000 nM.

Take `Clc1ccc(Nc2nccc3cc(OCC4CCOC4)ccc23)cn1` (stereo not shown) [Example 415, N-(6-chloropyridin-3-yl)-6-((tetrahydrofuran-3-yl)methoxy)isoquinolin-1-amine]: the EC50 is below 1000 nM.

`Cn1cc(F)c(COc2ccc3c(Nc4ccc(Cl)nc4)nccc3c2)n1` [Example 397, N-(6-chloropyridin-3-yl)-6-((4-fluoro-1-methyl-1H-pyrazol-3-yl)methoxy)isoquinolin-1-amine formate]: the EC50 was below 1000 nM.

Consider `CC(=O)N[C@H]1CCC[C@@H](Oc2ccc3c(Nc4cnc(Cl)nc4)nccc3c2)C1` [Example 378, N-((1 S,3R)-3-((1-((2-chloropyrimidin-5-yl)amino)isoquinolin-6-yl)oxy)cyclohexyl)acetamide], for which the EC50 was below 1000 nM.

Regarding `Clc1ccc(Nc2nccc3cc(OCCN4CCOCC4)ccc23)cn1` [Example 201, N-(6-chloropyridin-3-yl)-6-(2-morpholinoethoxy)isoquinolin-1-amine], the EC50 was in the range of 1000 to 10000 nM.

With `Cc1ncc(Nc2nccc3cc(OCC4(C#N)COC4)ccc23)cn1` [Example 228, 3-(((1-((2-methylpyrimidin-5-yl)amino)isoquinolin-6-yl)oxy)methyl)oxetane-3-carbonitrile], the EC50 fell in the range of 1000 to 10000 nM.

Take `Cc1ncc(Nc2nccc3cc(OCc4cnn(C)c4)ccc23)cc1O` [Example 324, 2-methyl-5-((6-((1-methyl-1H-pyrazol-4-yl)methoxy)isoquinolin-1-yl)amino)pyridin-3-ol]: the EC50 was in the range of 1000 to 10000 nM.

For the molecule `CC(C)C1(COc2ccc3c(Nc4cnc(Cl)nc4)nccc3c2)COC1` [Example 41, N-(2-chloropyrimidin-5-yl)-6-((3-isopropyloxetan-3-yl)methoxy)isoquinolin-1-amine], the EC50 is below 1000 nM.

Regarding `CC1(C)CC[C@H](COc2ccc3c(Nc4ccc(Cl)nc4)nccc3c2)O1` [Example 416, (R)-N-(6-chloropyridin-3-yl)-6-((5,5-dimethyltetrahydrofuran-2-yl)methoxy)isoquinolin-1-amine], the EC50 fell in the range of 1000 to 10000 nM.

On to `COCCn1cc(COc2ccc3c(Nc4ccc(Cl)nc4)nccc3c2)cn1` [Example 336, N-(6-chloropyridin-3-yl)-6-((1-(2-methoxyethyl)-1H-pyrazol-4-yl)methoxy)isoquinolin-1-amine], for which the EC50 was in the range of 1000 to 10000 nM.

With `Cn1cc(COc2ccc3c(Nc4cnc(Cl)c(O)c4)nccc3c2)cn1` [Example 374, 2-chloro-5-((6-((1-methyl-1H-pyrazol-4-yl)methoxy)isoquinolin-1-yl)amino)pyridin-3-ol], the EC50 was below 1000 nM.

For `O[C@H]1CCC[C@@H](Oc2ccc3c(Nc4cnc(Cl)nc4)nccc3c2)C1` [Example 359, (1 S,3R)-3-((1-((2-chloropyrimidin-5-yl)amino)isoquinolin-6-yl)oxy)cyclohexan-1-ol], the EC50 is below 1000 nM.

As for `CC(=O)N1CC[C@H](Oc2ccc3c(Nc4ccc(Cl)nc4)nccc3c2)C1` [Example 111, (S)-1-(3-((1-((6-chloropyridin-3-yl)amino)isoquinolin-6-yl)oxy)pyrrolidin-1-yl)ethan-1-one], the EC50 lay in the range of 1000 to 10000 nM.

As for `Clc1ccc(Nc2nccc3cc(-c4cc[nH]n4)ccc23)cn1` [Example 424, N-(6-chloropyridin-3-yl)-6-(1H-pyrazol-3-yl)isoquinolin-1-amine], the EC50 is 1000 to 10000 nM.

Turning to `C[C@H](Oc1ccc2c(Nc3ccc(Cl)nc3)nccc2c1)C1(F)CC1` [Example 140, (S)-N-(6-chloropyridin-3-yl)-6-(1-(1-fluorocyclopropyl)ethoxy)isoquinolin-1-amine], the EC50 is below 1000 nM.

`Cn1cc(COc2cnc3c(Nc4cnc(Cl)nc4)nccc3c2)cn1` [Example 253, N-(2-chloropyrimidin-5-yl)-3-((1-methyl-1H-pyrazol-4-yl)methoxy)-1,7-naphthyridin-8-amine]: the EC50 is below 1000 nM.

Turning to `CN1C(=O)CCC1COc1ccc2c(Nc3ccc(Cl)nc3)nccc2c1` (stereo not shown) [Example 53, 5-(((1-((6-chloropyridin-3-yl)amino)isoquinolin-6-yl)oxy)methyl)-1-methylpyrrolidin-2-one], the EC50 is 1000 to 10000 nM.

Take `Clc1ccc(Nc2nccc3cc(OCC4(OCc5ccncc5)CC4)ccc23)cn1` [Example 362, N-(6-chloropyridin-3-yl)-6-((1-(pyridin-4-ylmethoxy)cyclopropyl)methoxy)isoquinolin-1-amine]: the EC50 is 1000 to 10000 nM.

Take `C[C@]1(O)CC[C@@H](Oc2ccc3c(Nc4ccc(Cl)nc4)nccc3c2)CC1` [Example 265, cis-4-((1-((6-chloropyridin-3-yl)amino)isoquinolin-6-yl)oxy)-1-methylcyclohexan-1-ol]: the EC50 is below 1000 nM.

For `Cc1ncc(Nc2nccc3cc(OCC4(F)CC4)ccc23)cc1Cl` [Example 45, N-(5-chloro-6-methylpyridin-3-yl)-6-((1-fluorocyclopropyl)methoxy)isoquinolin-1-amine], the EC50 was at least 30000 nM.

With `N#C[C@H]1CCC[C@H](Oc2ccc3c(Nc4ccc(Cl)nc4)nccc3c2)C1` [Example 342, (1 S,3S)-3-((1-((6-chloropyridin-3-yl)amino)isoquinolin-6-yl)oxy)cyclohexane-1-carbonitrile], the EC50 lay in the range of 1000 to 10000 nM.

On to `Clc1ccc(Nc2nccc3cc(OCc4cnn(Cc5ccccc5)c4)ccc23)cn1` [Example 295, 6-((1-benzyl-1H-pyrazol-4-yl)methoxy)-N-(6-chloropyridin-3-yl)isoquinolin-1-amine], for which the EC50 was in the range of 1000 to 10000 nM.

With `CO[C@H]1CC[C@H](Oc2ccc3c(Nc4ccc(Cl)nc4)nccc3c2)CC1` [Example 105, N-(6-chloropyridin-3-yl)-6-(((1r,4r)-4-methoxycyclohexyl)oxy)isoquinolin-1-amine], the EC50 is 10000 to 30000 nM.

As for `CCOC(=O)C1(COc2ccc3c(Nc4ccc(Cl)nc4)nccc3c2)CC1` [Example 110, ethyl 1-(((1-((6-chloropyridin-3-yl)amino)isoquinolin-6-yl)oxy)methyl)cyclopropane-1-carboxylate], the EC50 lay in the range of 1000 to 10000 nM.

In the case of `N#C[C@@H]1CCC[C@@H](Oc2ccc3c(Nc4ccc(Cl)nc4)nccc3c2)C1` [Example 344, (1R,3R)-3-((1-((6-chloropyridin-3-yl)amino)isoquinolin-6-yl)oxy)cyclohexane-1-carbonitrile], the EC50 fell in the range of 1000 to 10000 nM.
